Data: patent US5439927A, “Imidazoyl-β-oxo-β-benzenepropanethiomide derivative, compositions and method of use thereof” (Mitsubishi Kasei Corporation, priority 1991, dated 1995)

Assays:
[1] = test system: aorta thoracica of a Wistar rat; assay: Suppression of 20 mM K shrinkage (contraction) of rat aorta thoracica (Test Example 1); details: Klebs-Heneleit solution, 37° C., 20 mMK, read-out: Rat aorta IC30 20 mMK (dose of a drug suppressing 30% of 20 mMK shrinkage)
Experimental: The aorta thoracica of a Wistar rat was resected and then suspended in a Klebs-Heneleit solution kept at 37° C., according to the Weir and Weston's method (Br. J. Pharmac., 88, 121, (1986)), to determine the dose (IC30 20 mMK) of a drug suppressing 30% of 20 mMK shrinkage. As control, the same test done about the known compound A described in Bull. Soc. Chem. Fr., 1975, 829.

[2] = test system: spontaneous hypertensive rats (OKAMOTO-AOKI strain); assay: Blood pressure lowering in spontaneous hypertensive rats after oral administration (Test Example 2); format: in vivo; details: 2 hours after the dosing, direct method
Experimental: At a dose of 3 mg/kg or 10 mg/kg, the compound of the present invention was orally administered to spontaneous hypertensive rats (OKAMOTO-AOKI strain) with an average blood pressure of 150 mmHg or more. According to the direct method described by Nakano H. and Takayanagi K., Japanese Journal of Pharmacology, Vol. 25, 25 (1975), blood pressure and cardiac output were measured. Using the compound A used in the Test Example 1 as control, the same test was done.

Structure (SMILES)	IC30 [1]	Mean blood pressure: Blood pressure decrease ([2]; 10 mg/kg)	Mean blood pressure: Blood pressure decrease ([2]; 3 mg/kg)
CNC(=S)C(C)(C)C(=O)c1ccc(C#N)cc1 [Compound 224]	5 µM	38.8 mmHg	
CNC(=S)C(C)(C)C(=O)c1ccc(-n2ccnc2)cc1 [Compound 226]	13 µM	35.9 mmHg	
CNC(=S)C(C)(C)C(=O)c1cccc(-n2ccnc2)c1 [Compound 265]	0.62 µM		76.5 mmHg
CNC(=S)C(C)(C)C(=O)c1ccccc1-n1ccnc1 [Compound 302]		51.9 mmHg	
CNC(=S)C1(C(=O)c2ccc(-n3ccnc3)cc2)CC1 [Compound 342]		31.2 mmHg	
CNC(=S)C1(C(=O)c2ccc(-n3ccnc3)cc2)CCC1 [Compound 356, 4-(1-imidazolyl)-N-methyl-β-oxo-α,α-trimethylenebenzenepropanethioamide]	2.1 µM	58.9 mmHg	
CNC(=S)C1(C(=O)c2ccc(-n3ccnc3C)cc2)CCC1 [Compound 357]	0.18 µM	78.4 mmHg	
CNC(=S)C(C)(C)C(=O)c1ccccc1 [Compound A, N, α, α-trimethyl-β-oxobenzenepropanethioamide, reference compound]	13.6 µM	14.1 mmHg	
